The values below come from patent publication US8299073B2, “P38 MAP kinase inhibitors” (Respivert Ltd., priority 2008, dated 2012).

The structures appear in SMILES notation. pEC50, pIC50: −log10 of the molar value.

In data set [1] the target is T1, p38 MAPK alpha (MAPK14: Invitrogen) (Homo sapiens, UniProt Q16539).
T1 construct: purchased Invitrogen
The data set can be described thus: Enzyme inhibition assay (FRET, Z-LYTE), p38 MAPK alpha, via activation of MAPKAP-K2. Format: biochemical. The note with it: read-out: IC50 values p38α enzyme.

The target of data set [2] is T2, recombinant, phosphorylated p38 MAPK gamma (MAPK12:Millipore) (Homo sapiens, UniProt P53778).
T2 construct: purchased Millipore
T2 sequence (P53778 1-367): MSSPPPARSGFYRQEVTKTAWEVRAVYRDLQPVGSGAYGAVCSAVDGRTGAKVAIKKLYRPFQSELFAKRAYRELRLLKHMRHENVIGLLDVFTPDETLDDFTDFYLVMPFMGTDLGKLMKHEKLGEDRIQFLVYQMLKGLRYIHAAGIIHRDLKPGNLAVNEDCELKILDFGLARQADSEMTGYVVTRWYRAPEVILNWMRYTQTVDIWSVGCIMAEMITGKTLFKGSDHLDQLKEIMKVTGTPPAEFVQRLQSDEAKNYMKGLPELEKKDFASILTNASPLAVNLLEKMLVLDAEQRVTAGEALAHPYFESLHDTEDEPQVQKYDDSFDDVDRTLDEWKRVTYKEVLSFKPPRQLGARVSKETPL
The data set can be described thus: Enzyme inhibition assay (FRET, Z-LYTE), p38 MAPK gamma. The note with it: read-out: IC50 values P38γ enzyme. The format is biochemical.
Procedure: The enzyme inhibitory activity of compound was determined by fluorescence resonance energy transfer (FRET) using synthetic peptides labelled with both donor and acceptor fluorophores (Z-LYTE, Invitrogen). Briefly, recombinant, phosphorylated p38 MAPK gamma (MAPK12:Millipore) was diluted in HEPES buffer, mixed with compound at desired final concentrations and incubated for two hours at room temperature. The FRET peptide (2 μM) and ATP (100 uM) were next added to the enzyme/compound mixture and incubated for one hour. Development reagent (protease) was added for one hour prior to detection in a fluorescence microplate reader. The site-specific protease only cleaves non-phosphorylated peptide and eliminates the FRET signal. Phosphorylation levels of each reaction were calculated using the ratio of coumarin emission (donor) over fluorescein emission (acceptor) with high ratios indicating high phosphorylation and low ratios, low phosphorylation levels.

Data set [3] concerns Differentiated U937 cells. The data set can be described thus: MTT assay (loss of cell viability). Format: cell-based, human. The settings on record: loss of cell viability, 10 ug/ml.
Procedure: Differentiated U937 cells were pre-incubated with compound for 4 hrs in 5% FCS or 10% FCS for 24 hrs and 72 hr. The supernatant was replaced with 200 ul of new media and 10 μL of MTT stock solution (5 mg/mL) added to each well. After 1 hr incubation, the media were removed, 200 μL of DMSO added to each well and the plates were shaken lightly for 1 hr prior to reading the absorbance at 550 nm.
The percentage loss of cell viability was calculated for each well relative to vehicle (0.5% DMSO)-treatment. Consequently an apparent increase in cell viability for drug treatment relative to vehicle is tabulated as a negative percentage.
Data set [4] has as its system LPS-induced TNFα release in differentiated U937 cells. The data set can be described thus: LPS-induced TNF alpha release in differentiated U937 cells. The note with it: Homo sapiens; read-out: R-EC50 values d-U937 cells. Format: cell-based.
Procedure: U937 cells, human monocytic cell line, were differentiated to macrophage-type cells by incubation with phorbol myristate acetate (PMA; 100 ng/ml) for 48 to 72 hours. Where appropriate, cells were pre-incubated with final concentrations of compound for 2 hrs. Cells were then stimulated with 0.1 μg/mL of LPS (from E. coli: O111:B4, Sigma) for 4 hrs, and the supernatant collected for determination of TNFα concentration by sandwich ELISA (Duo-set, R&D systems).
In data set [5] the test system is LPS-induced TNFα release in THP-1 cells. The data set can be described thus: LPS-induced TNF alpha release in THP-1 cells. The format is cell-based. The note with it: Homo sapiens, THP-1; LPS-induced TNFα release; read-out: IC50 values THP-1 cells.
Procedure: THP-1, human monocytic cell line, was also used for this assay. THP-1 cells were stimulated with 1 μg/ml of LPS (from E. coli: O111:B4, Sigma) for 4 hrs, and the supernatant collected for determination of TNFα concentration.
THP-1 cells, a human monocytic cell line, were stimulated with 1 μg/ml of LPS (from E. coli; O111:B4, Sigma) for 4 hr and the supernatant collected for determination of TNFα concentration by sandwich ELISA (Duo-set, R&D systems). The inhibition of TNFα production was calculated at each concentration by comparison with vehicle control.

T1 sequence (Q16539 whole entry): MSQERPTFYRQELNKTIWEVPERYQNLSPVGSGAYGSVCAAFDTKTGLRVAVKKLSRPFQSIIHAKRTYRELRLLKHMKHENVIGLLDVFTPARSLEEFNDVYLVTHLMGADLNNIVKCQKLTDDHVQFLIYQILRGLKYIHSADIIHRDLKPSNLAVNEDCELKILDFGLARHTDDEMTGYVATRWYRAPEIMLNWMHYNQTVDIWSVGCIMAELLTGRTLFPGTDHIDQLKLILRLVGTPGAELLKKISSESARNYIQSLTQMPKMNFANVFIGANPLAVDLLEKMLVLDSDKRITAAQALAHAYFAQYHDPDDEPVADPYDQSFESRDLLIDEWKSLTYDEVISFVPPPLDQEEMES

For `COCCC(=O)Nc1cc(COc2ccc(NC(=O)Nc3cc(C(C)(C)C)nn3-c3ccc(C)cc3)c3ccccc23)ccn1` [Example 14, N-(4-((4-(3-(3-tert-Butyl-1-p-tolyl-1H-pyrazol-5-yl)ureido)naphthalen-1-yloxy)methyl)pyridin-2-yl)-3-methoxypropanamide], the pIC50 (usually −log10 of the IC50, conventionally taken in molar units) in data set [1] was more than 8.00; in data set [2], more than 6.30; in data set [5], more than 8.00. Moreover, the “MTT 4 hr” value in data set [3] was “− (− <30%)”. Moreover, in data set [3], the “MTT 24 hr” value was “− (− <30%)”. The pEC50 (commonly the negative decadic logarithm of the EC50, by convention in mol/L) in data set [4] is more than 8.00.
For `Cc1ccc(-n2nc(C(C)(C)C)cc2NC(=O)Nc2ccc(OCc3ccnc(NC(=O)CCCN(C)C)c3)c3ccccc23)cc1` [Example 16, N-(4-((4-(3-(3-tert-Butyl-1-p-tolyl-1H-pyrazol-5-yl)ureido)naphthalen-1-yloxy)methyl)pyridin-2-yl)-4-(dimethylamino)butanamide], the values for the pIC50 in data set [1], in data set [2] and in data set [5] were more than 6.30, more than 6.30 and more than 8.00, respectively. Moreover, the “MTT 4 hr” value in data set [3] is on record as “+ (+ >30% at 10 ug/ml)”. In data set [3], the “MTT 24 hr” value was “+ (+ >30% at 10 ug/ml)”. In addition, the pEC50 in data set [4] was more than 8.00.
Consider `COCCSCC(=O)Nc1cc(COc2ccc(NC(=O)Nc3cc(C(C)(C)C)nn3-c3ccc(C)cc3)c3ccccc23)ccn1` [Example 29, N-(4-((4-(3-(3-tert-Butyl-1-p-tolyl-1H-pyrazol-5-yl)ureido)naphthalen-1-yloxy)methyl)pyridin-2-yl)-2-(2-methoxyethylthio)acetamide], for which the pIC50 in data set [1] was more than 6.30; in data set [2], more than 6.30; in data set [5], more than 8.00. The “MTT 4 hr” value in data set [3] is recorded as “− (− <30%)”. Also, the “MTT 24 hr” value in data set [3] is “− (− <30%)”. Further, the negative-log EC50 (pEC50) in data set [4] was more than 8.00.
As to `Cc1ccc(-n2nc(C(C)(C)C)cc2NC(=O)Nc2ccc(OCc3ccnc(NC(=O)CCS(C)(=O)=O)c3)c3ccccc23)cc1` [Example 17, N-(4-((4-(3-(3-tert-Butyl-1-p-tolyl-1H-pyrazol-5-yl)ureido)naphthalen-1-yloxy)methyl)pyridin-2-yl)-3-(methylsulfonyl)propanamide], the pIC50 in data set [1] was more than 8.00; in data set [2], more than 6.30; in data set [5], more than 8.00. Moreover, the “MTT 4 hr” value in data set [3] is “− (− <30%)”. Besides, in data set [3], the “MTT 24 hr” value is on record as “− (− <30%)”. The pEC50 in data set [4] is more than 8.00.
`Cc1ccc(-n2nc(C(C)(C)C)cc2NC(=O)Nc2ccc(OCc3ccnc(NC(=O)CSCCN4CCOCC4)c3)c3ccccc23)cc1` [Example 31, N-(4-((4-(3-(3-tert-Butyl-1-p-tolyl-1H-pyrazol-5-yl)ureido)naphthalen-1-yloxy)methyl)pyridin-2-yl)-2-(2-morpholinoethylthio)acetamide]: the pIC50 in data set [1] is more than 6.30; in data set [2], more than 6.30; in data set [5], more than 8.00. Moreover, in data set [3], the “MTT 4 hr” value is “− (− <30%)”. The “MTT 24 hr” value in data set [3] is reported as “+ (+ >30% at 10 ug/ml)”. Also, the negative logarithm of the EC50 (pEC50) in data set [4] was more than 8.00.
Consider `CO[C@H](C)C(=O)Nc1cc(COc2ccc(NC(=O)Nc3cc(C(C)(C)C)nn3-c3ccc(C)cc3)c3ccccc23)ccn1` [Example 5, (R)-N-(4-((4-(3-(3-tert-Butyl-1-p-tolyl-1H-pyrazol-5-yl)ureido)naphthalen-1-yloxy)methyl)pyridin-2-yl)-2-methoxypropanamide], for which the negative-log IC50 (pIC50) is more than 8.00 in data set [1], more than 5.30 in data set [2] and more than 8.00 in data set [5]. Further, the “MTT 4 hr” value in data set [3] is listed as “− (− <30%)”. In addition, in data set [3], the “MTT 24 hr” value was “+ (+ >30% at 10 ug/ml)”. Further, the pEC50 in data set [4] is more than 8.00.
On to `COCC(=O)Nc1cc(C(C)(C)COc2ccc(NC(=O)Nc3cc(C(C)(C)C)nn3-c3ccc(C)cc3)c3ccccc23)ccn1` [Example 48, N-(4-(1-(4-(3-(3-tert-Butyl-1-p-tolyl-1-pyrazol-5-yl)ureido)naphthalen-1-yloxy)-2-methylpropan-2-yl)pyridin-2-yl)-2-methoxyacetamide], for which the negative logarithm of the IC50 (pIC50) in data set [1] was more than 6.30; in data set [2], less than 5.30; in data set [5] it was more than 6.30. Further, the “MTT 4 hr” value in data set [3] was “− (− <30%)”. In addition, the “MTT 24 hr” value in data set [3] is listed as “− (− <30%)”. The pEC50 in data set [4] is more than 6.30.
Consider `CN[C@@H](C)C(=O)Nc1cc(COc2ccc(NC(=O)Nc3cc(C(C)(C)C)nn3-c3ccc(C)cc3)c3ccccc23)ccn1` [Example 9, (S)-N-(4-((4-(3-(3-tert-Butyl-1-p-tolyl-1H-pyrazol-5-yl)ureido)naphthalen-1-yloxy)methyl)pyridin-2-yl)-2-(methylamino)propanamide], for which the pIC50 is more than 8.00 in data set [1], more than 6.30 in data set [2] and more than 8.00 in data set [5]. In data set [3], the “MTT 4 hr” value is reported as “− (− <30%)”. Besides, the “MTT 24 hr” value in data set [3] is given as “+ (+ >30% at 10 ug/ml)”. Further, the negative logarithm of the EC50 (pEC50) in data set [4] was more than 8.00.
In the case of `Cc1ccc(-n2nc(C(C)(C)C)cc2NC(=O)Nc2ccc(OCc3ccnc(NC(=O)CN4CCN(C)CC4)c3)c3ccccc23)cc1` [Example 23, N-(4-((4-(3-(3-tert-Butyl-1-p-tolyl-1H-pyrazol-5-yl)ureido)naphthalen-1-yloxy)methyl)pyridin-2-yl)-2-(4-methylpiperazin-1-yl)acetamide], the pIC50 in data set [1] is more than 8.00; in data set [2], more than 6.30; in data set [5] it was more than 8.00. In data set [3], the “MTT 4 hr” value is given as “+ (+ >30% at 10 ug/ml)”. Further, the “MTT 24 hr” value in data set [3] is on record as “+ (+ >30% at 10 ug/ml)”. The pEC50 in data set [4] is more than 8.00.
For `COCC(=O)Nc1cc(COc2ccc(NC(=O)Nc3cc(C(C)(C)C)nn3-c3ccc(CO)cc3)c3ccccc23)ccn1` [Example 49, N-(4-((4-(3-(3-tert-Butyl-1-(4-(hydroxymethyl)phenyl)-1H-pyrazol-5-yl)ureido)naphthalen-1-yloxy)methyl)pyridin-2-yl)-2-methoxyacetamide], the negative logarithm of the IC50 (pIC50) was more than 8.00 in data set [1], more than 6.30 in data set [2] and more than 6.30 in data set [5]. Besides, in data set [3], the “MTT 4 hr” value is “− (− <30%)”. Besides, the “MTT 24 hr” value in data set [3] was “+ (+ >30% at 10 ug/ml)”. In data set [4], the negative-log EC50 (pEC50) is more than 8.00.
As to `Cc1ccc(-n2nc(C(C)(C)C)cc2NC(=O)Nc2ccc(OCc3ccnc(NC(=O)[C@H]4COCCN4)c3)c3ccccc23)cc1` [Example 10, (R)-N-(4-((4-(3-(3-tert-Butyl-1-p-tolyl-1H-pyrazol-5-yl)ureido)naphthalen-1-yloxy)methyl)pyridin-2-yl)morpholine-3-carboxamide], the pIC50 in data set [1] is more than 6.30; in data set [2] it was more than 5.30; in data set [5] it was more than 8.00. Further, the “MTT 4 hr” value in data set [3] is recorded as “− (− <30%)”. In data set [3], the “MTT 24 hr” value is given as “− (− <30%)”. Further, in data set [4], the pEC50 was more than 8.00.
`CNCC(=O)Nc1cc(COc2ccc(NC(=O)Nc3cc(C(C)(C)C)nn3-c3ccc(C)cc3)c3ccccc23)ccn1` [Example 27, N-(4-((4-(3-(3-tert-Butyl-1-p-tolyl-1H-pyrazol-5-yl)ureido)naphthalen-1-yloxy)methyl)pyridin-2-yl)-2-(methylamino)acetamide]: the pIC50 in data set [1] was more than 6.30; in data set [2], more than 6.30; in data set [5], more than 8.00. In data set [3], the “MTT 4 hr” value was “− (− <30%)”. In data set [3], the “MTT 24 hr” value is reported as “− (− <30%)”. In addition, in data set [4], the pEC50 was more than 8.00.
In the case of `COCCOCCSCC(=O)Nc1cc(COc2ccc(NC(=O)Nc3cc(C(C)(C)C)nn3-c3ccc(C)cc3)c3ccccc23)ccn1` [Example 30, N-(4-((4-(3-(3-tert-Butyl-1-p-tolyl-1H-pyrazol-5-yl)ureido)naphthalen-1-yloxy)methyl)pyridin-2-yl)-2-(2-(2-methoxyethoxy)ethylthio)acetamide], the pIC50 in data set [1] is more than 6.30; in data set [2] it was more than 6.30; in data set [5] it was more than 8.00. The “MTT 4 hr” value in data set [3] is recorded as “− (− <30%)”. Besides, the “MTT 24 hr” value in data set [3] was “− (− <30%)”. Besides, the negative-log EC50 (pEC50) in data set [4] is more than 8.00.
With `COc1ccc(CN(C)CC(=O)Nc2cc(COc3ccc(NC(=O)Nc4cc(C(C)(C)C)nn4-c4ccc(C)cc4)c4ccccc34)ccn2)cc1` [Example 28, N-(4-((4-(3-(3-tert-Butyl-1-p-tolyl-1H-pyrazol-5-yl)ureido)naphthalen-1-yloxy)methyl)pyridin-2-yl)-2-((4-methoxybenzyl)(methyl)amino)acetamide], the pIC50 in data set [1] is more than 6.30; in data set [2], more than 5.30; in data set [5] it was more than 8.00. In addition, the “MTT 4 hr” value in data set [3] is “− (− <30%)”. In addition, the “MTT 24 hr” value in data set [3] is listed as “− (− <30%)”. In addition, the pEC50 in data set [4] is more than 8.00.
Take `Cc1ccc(-n2nc(C(C)(C)C)cc2NC(=O)Nc2ccc(OCc3ccnc(NC(=O)N4CCOCC4)c3)c3ccccc23)cc1` [Example 13, N-(4-((4-(3-(3-tert-Butyl-1-p-tolyl-1H-pyrazol-5-yl)ureido)naphthalen-1-yloxy)methyl)pyridin-2-yl)morpholine-4-carboxamide]: the figures for the negative logarithm of the IC50 (pIC50) in data set [1], in data set [2] and in data set [5] were more than 8.00, more than 6.30 and more than 6.30, respectively. Moreover, the “MTT 4 hr” value in data set [3] was “− (− <30%)”. Further, the “MTT 24 hr” value in data set [3] is “− (− <30%)”. Also, the pEC50 in data set [4] was more than 8.00.
